Reference: ChEMBL document CHEMBL1201862, “PubChem BioAssay data set” (2004)
The source made the active and inactive calls.

Experiments:
[1] = target: T1, Neuropeptide Y receptor type 2 (Homo sapiens, UniProt P49146); assay: NPY-Y2 antagonist potency, selectivity check, dose response, counter-screen for NPY-Y1 antagonist project, cell-based (AID 1278); type: functional
T1 sequence (P49146 whole entry): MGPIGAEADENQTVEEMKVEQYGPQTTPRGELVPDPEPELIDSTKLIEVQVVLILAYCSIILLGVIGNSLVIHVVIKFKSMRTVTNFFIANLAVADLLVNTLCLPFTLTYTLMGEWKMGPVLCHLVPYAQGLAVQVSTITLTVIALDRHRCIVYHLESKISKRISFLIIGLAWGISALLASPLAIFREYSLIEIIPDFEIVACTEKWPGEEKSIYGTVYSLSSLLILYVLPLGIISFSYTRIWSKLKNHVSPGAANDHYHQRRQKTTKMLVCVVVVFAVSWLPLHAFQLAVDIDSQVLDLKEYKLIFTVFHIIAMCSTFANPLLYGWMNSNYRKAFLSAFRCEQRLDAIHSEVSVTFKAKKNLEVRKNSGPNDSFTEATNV

[2] = target: T2, Neuropeptide Y receptor type 1 (Homo sapiens, UniProt P25929); assay: NPY-Y1 receptor antagonist potency, dose response, cell-based (AID 1277); type: functional
T2 sequence (P25929 whole entry): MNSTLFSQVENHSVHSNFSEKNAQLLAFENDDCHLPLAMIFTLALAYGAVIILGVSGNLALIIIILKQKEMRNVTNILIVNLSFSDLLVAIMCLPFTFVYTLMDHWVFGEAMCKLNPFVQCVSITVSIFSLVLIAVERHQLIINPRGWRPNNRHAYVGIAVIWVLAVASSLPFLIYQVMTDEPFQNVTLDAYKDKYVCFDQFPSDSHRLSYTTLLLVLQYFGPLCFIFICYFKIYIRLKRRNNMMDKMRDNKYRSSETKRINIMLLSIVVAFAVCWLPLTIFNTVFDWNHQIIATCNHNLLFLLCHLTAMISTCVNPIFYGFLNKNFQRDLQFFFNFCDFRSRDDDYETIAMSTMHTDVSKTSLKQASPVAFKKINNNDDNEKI

[3] = target: T3, Rac GTPase-activating protein 1 (Homo sapiens, UniProt Q9H0H5); assay: MgcRacGAP GTPase-activating activity inhibitors, confirmation, biochemical, ADP Hunter fluorescence, primary and confirmatory (AID 624330); type: functional
T3 sequence (Q9H0H5 whole entry): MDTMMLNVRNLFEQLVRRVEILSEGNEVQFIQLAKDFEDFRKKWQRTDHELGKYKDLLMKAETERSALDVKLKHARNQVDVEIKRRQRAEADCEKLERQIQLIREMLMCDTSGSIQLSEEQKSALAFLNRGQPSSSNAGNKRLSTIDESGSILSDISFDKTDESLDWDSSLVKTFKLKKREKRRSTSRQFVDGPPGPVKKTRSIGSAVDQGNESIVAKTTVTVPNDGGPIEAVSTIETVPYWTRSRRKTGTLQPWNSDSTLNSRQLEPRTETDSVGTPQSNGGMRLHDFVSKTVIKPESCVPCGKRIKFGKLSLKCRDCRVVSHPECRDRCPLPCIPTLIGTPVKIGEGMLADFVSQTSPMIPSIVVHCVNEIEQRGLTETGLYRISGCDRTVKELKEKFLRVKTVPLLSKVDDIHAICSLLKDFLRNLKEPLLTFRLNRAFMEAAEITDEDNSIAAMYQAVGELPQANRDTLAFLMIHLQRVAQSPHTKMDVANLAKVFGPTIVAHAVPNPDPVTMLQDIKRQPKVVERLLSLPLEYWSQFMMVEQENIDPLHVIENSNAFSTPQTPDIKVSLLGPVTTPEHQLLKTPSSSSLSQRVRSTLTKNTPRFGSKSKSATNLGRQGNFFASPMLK

[4] = Counterscreen for IDE inhibitors: Luminescence-based cell-based high throughput dose response assay to identify compounds that are cytotoxic to HEK cells. [Related pubchem assays: 434962 (Primary screen (IDE inhibitors in singlicate)), 449730 (Counterscreen (Cytotoxicity in triplicate)), 435028 (Confirmation (IDE inhibitors in triplicate)) …; type: functional; details: HEK293
Insulin-degrading enzyme = target: T4, Insulin-degrading enzyme (Homo sapiens, UniProt P14735); assay: Dose Response: Fluorescence polarization-based cell-based high throughput dose response assay for inhibitors of insulin-degrading enzyme (IDE). [Related pubchem assays: 434962 (Primary screen (IDE inhibitors in singlicate)), 449730 (Counterscreen (Cytotoxicity in triplicate)), 435028 (Confirmation (IDE inhibitors in triplicate)), 434984 (Summary …; type: functional
T4 sequence (P14735 whole entry): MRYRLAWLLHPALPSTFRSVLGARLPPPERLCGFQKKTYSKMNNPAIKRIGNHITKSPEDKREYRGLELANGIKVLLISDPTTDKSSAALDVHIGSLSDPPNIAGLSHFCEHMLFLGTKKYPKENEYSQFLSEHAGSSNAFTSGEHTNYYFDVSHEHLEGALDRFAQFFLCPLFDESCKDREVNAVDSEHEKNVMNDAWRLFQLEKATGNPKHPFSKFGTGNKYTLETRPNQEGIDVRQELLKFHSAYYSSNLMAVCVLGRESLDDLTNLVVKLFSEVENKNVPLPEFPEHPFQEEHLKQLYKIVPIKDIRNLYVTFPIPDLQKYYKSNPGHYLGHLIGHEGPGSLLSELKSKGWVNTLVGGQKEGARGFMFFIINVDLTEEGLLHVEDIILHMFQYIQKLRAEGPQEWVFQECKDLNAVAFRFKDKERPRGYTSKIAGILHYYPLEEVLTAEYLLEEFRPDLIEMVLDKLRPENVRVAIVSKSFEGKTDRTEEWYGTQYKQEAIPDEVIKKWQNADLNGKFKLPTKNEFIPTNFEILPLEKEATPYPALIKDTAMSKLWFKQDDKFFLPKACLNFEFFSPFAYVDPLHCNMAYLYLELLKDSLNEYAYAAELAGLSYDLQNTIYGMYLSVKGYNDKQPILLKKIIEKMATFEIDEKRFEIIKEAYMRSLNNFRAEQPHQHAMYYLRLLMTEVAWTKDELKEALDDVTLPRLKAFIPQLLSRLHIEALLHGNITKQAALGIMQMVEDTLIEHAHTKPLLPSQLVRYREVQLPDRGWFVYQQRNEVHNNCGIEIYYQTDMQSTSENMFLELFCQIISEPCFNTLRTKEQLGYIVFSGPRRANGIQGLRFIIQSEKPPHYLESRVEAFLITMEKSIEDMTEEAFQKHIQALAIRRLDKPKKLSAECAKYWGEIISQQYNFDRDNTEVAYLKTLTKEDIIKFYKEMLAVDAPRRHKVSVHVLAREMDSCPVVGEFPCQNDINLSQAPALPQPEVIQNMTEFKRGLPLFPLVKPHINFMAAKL

[5] = enhancers of respiration in Yfh1-depleted yeast, dose response, Friedreich's ataxia, plus single-dose screen (AID 1465); type: functional;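 note: yeast depleted of Yfh1p frataxin homolog grown on glycerol needing respiration; WST-1 tetrazolium dye reduction as measure of cellular dehydrogenase metabolic activity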
[6] = A High Throughput Confirmatory Assay used to Identify Novel Compounds that Inhibit Mycobacterium Tuberculosis in the absence of Glycerol.; type: functional
[7] = target: Sphingosine 1-phosphate receptor 2 (Homo sapiens, UniProt O95136); assay: Dose Response Cell-Based Assay for Agonists of the Sphingosine 1-Phosphate Receptor 2 (S1P2): Purchased Analogues. [Related pubchem assays: 1192, 373, 439 ]; type: functional
Sphingosine 1-phosphate receptor 2, sequence (O95136 whole entry): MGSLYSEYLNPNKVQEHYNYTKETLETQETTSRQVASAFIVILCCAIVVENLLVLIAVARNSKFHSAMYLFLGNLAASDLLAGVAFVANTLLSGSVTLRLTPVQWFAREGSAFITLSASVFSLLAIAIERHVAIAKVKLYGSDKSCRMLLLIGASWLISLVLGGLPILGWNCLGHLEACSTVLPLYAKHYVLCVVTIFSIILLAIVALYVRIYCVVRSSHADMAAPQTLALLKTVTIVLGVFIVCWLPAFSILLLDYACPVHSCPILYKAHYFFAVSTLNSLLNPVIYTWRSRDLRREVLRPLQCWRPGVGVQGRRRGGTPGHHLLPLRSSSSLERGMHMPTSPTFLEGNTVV

[8] = target: Sphingosine 1-phosphate receptor 1 (Homo sapiens, UniProt P21453); assay: Dose Response Cell-Based Assay for Agonists of the Sphingosine 1-Phosphate Receptor 1 (S1P1): Purchased Analogues. [Related pubchem assays: 1192, 373, 439 ]; type: functional
Sphingosine 1-phosphate receptor 1, sequence (P21453 whole entry): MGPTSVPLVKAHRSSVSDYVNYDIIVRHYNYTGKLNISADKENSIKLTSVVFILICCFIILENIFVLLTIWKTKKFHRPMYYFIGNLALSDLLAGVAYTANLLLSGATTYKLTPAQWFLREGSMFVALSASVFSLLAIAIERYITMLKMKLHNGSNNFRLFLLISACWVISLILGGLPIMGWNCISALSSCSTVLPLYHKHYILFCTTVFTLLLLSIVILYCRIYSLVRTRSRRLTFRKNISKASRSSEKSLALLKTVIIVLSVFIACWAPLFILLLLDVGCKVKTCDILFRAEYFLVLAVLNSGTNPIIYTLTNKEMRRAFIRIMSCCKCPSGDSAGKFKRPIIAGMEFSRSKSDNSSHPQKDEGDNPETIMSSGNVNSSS

[9] = target: Sphingosine 1-phosphate receptor 3 (Homo sapiens, UniProt Q99500); assay: Dose Response Cell-Based Assay for Agonists of the Sphingosine 1-Phosphate Receptor 3 (S1P3): Purchased Analogues. [Related pubchem assays: 373, 439 ]; type: functional
Sphingosine 1-phosphate receptor 3, sequence (Q99500 whole entry): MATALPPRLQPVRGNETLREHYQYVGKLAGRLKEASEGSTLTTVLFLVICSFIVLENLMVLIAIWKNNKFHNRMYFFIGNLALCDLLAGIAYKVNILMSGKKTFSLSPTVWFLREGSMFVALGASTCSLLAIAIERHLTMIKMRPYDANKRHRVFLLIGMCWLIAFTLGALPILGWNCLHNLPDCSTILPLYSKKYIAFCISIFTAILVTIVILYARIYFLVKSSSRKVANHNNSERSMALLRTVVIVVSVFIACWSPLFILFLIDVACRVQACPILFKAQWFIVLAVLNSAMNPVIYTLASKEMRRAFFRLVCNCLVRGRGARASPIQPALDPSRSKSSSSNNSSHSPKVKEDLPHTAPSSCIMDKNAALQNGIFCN

HEK293 = assay: Fluorescence-based counterscreen for potentiators or agonists of NPY-Y2: cell-based high-throughput dose response assay to identify inhibitors of cyclic nucleotide gated ion channel (CNGC) activity. In this assay, the parental HEK293 cell line transfected with a cyclic-nucleotide gated ion channel (CNGC)-based cAMP sensor is used to measure inhibition of isoproterenol-induced CNGC activity by test compound.; type: functional; details: Homo sapiens;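 note: stimulus is 1 µM isoproterenol at EC100 plus PDE inhibitor Ro 20-1724 at 25 µM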
[10] = target: T1, Neuropeptide Y receptor type 2; assay: Fluorescence-based cell-based high-throughput dose response assay for agonists of NPY-Y2. [Related pubchem assays: 1703 (Screening assay (CNGC inhibitors).), 1359 (Screening assay (NPY-Y2 potentiators or agonists).), 1304 (Screening assay (NPY-Y1 potentiators or agonists).), 1710 (Screening assay (NPY-Y2 agonists).), 1791 (Summary AID.)]; type: functional
[11] = target: T2, Neuropeptide Y receptor type 1; assay: Fluorescence-based counterscreen for agonists of NPY-Y2: cell-based high-throughput dose response assay for agonists of NPY-Y1.; type: functional
Estrogen receptor = target: T5, Estrogen receptor (Homo sapiens, UniProt P03372);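 note: potency for inhibiting coactivator peptide recruitment to the receptor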
T5 sequence (P03372 whole entry): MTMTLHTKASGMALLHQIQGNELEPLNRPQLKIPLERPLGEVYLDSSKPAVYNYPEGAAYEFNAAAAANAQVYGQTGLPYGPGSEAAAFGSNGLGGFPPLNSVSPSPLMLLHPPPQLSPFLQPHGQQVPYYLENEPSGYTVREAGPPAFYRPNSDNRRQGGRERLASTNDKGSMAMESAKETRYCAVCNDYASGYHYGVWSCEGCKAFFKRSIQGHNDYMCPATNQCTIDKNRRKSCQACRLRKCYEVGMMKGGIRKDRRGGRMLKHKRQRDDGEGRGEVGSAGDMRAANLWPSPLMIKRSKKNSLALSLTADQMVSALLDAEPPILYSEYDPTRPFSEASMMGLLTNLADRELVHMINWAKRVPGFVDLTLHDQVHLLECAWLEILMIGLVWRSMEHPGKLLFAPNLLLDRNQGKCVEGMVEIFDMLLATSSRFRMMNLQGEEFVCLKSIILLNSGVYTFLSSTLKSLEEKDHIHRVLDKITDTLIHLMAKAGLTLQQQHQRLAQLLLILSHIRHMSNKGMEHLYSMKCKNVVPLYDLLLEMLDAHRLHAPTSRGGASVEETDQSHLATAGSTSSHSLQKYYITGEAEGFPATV

Estrogen receptor beta [12] = target: T6, Estrogen receptor beta (Homo sapiens, UniProt Q92731);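 note: recombinant ER-beta bound to coactivator SRC1 peptide in presence of estradiol agonist; inhibitors block coactivator peptide binding and lower the FRET signal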
T6 sequence (Q92731 whole entry): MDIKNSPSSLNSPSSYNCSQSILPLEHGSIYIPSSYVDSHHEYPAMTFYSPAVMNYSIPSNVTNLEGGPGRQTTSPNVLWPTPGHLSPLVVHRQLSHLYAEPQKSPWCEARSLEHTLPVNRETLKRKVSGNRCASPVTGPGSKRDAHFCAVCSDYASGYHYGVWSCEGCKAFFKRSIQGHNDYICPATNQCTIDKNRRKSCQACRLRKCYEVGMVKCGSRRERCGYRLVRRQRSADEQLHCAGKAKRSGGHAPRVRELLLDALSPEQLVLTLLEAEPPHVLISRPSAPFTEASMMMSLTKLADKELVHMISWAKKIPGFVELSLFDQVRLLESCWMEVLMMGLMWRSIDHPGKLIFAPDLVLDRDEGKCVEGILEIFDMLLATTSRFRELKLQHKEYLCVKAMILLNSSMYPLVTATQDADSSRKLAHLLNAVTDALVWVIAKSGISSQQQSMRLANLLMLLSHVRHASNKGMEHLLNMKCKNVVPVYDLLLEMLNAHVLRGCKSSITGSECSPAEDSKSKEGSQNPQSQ

Estrogen receptor beta [13] = target: T6, Estrogen receptor beta; assay: ERβ–SRC-3 coactivator interaction inhibitors, confirmation, orthogonal assay, biochemical, ELISA, streptavidin-HRP readout (AID 1060)

In the case of `COc1ccc(Oc2c(C)n[nH]c2-c2ccc(O)cc2O)cc1`, the IC50 [1] is reported as > 35 µM (not active), the IC50 [2] is reported as > 35 µM (not active) and the IC50 [3] is reported as 47.4 µM (active).
With `O=C1NC(=O)N(c2ccc3c(c2)OCO3)C(=O)/C1=C\c1ccc(N2CCCCC2)o1` the IC50 [4] was > 55.7 µM (not active), the IC50 (Insulin-degrading enzyme) was 21 µM (not active) and the EC50 [5] was > 100 µM (active).
In the case of `O=C(CCN1C(=O)/C(=C/c2ccccc2)SC1=S)Nc1ccccn1`, the IC50 [6] is reported as > 100 µM (active).
In the case of `NC(=O)C1CCN(C(=O)c2cc(-c3ccccc3)on2)CC1`, the EC50 [7] is reported as > 10 µM (not active), the EC50 [8] is reported as > 50 µM (not active) and the EC50 [9] is reported as > 50 µM (not active).
For `O=C(/C=C/c1cn(-c2ccccc2)nc1-c1cccnc1)N1CCCC1`, the EC50 (HEK293) was > 35.4 µM (not active), the EC50 [10] was > 35.4 µM (not active) and the EC50 [11] was > 35.4 µM (not active).
For `Cc1cc(C)c(S(=O)(=O)/N=C2\C=CC(=O)C(Cl)=C2)c(C)c1`, the IC50 (Estrogen receptor) was 10.3 µM (active), the IC50 (Estrogen receptor beta [12]) was 4.69 µM (active) and the IC50 (Estrogen receptor beta [13]) was 16.5 µM (not active).
